Results on 1 compound are retold here after US9498546B2, “Synthesis and application of novel imaging agents conjugated to DPA 713 analogs for imaging inflammation” (THE JOHNS HOPKINS UNIVERSITY, priority 2012, dated 2016).

Entries after “also recorded” stand apart in the source; their conditions may differ.

The test system of series [1] is TSPO+ MDA-MB-231 / MDA-MB-231-PSMA xenografts. Briefly: In vivo NIRF imaging in TSPO+ MDA-MB-231 breast cancer xenograft bearing mice. On the set-up: species or system NOD-SCID mice. As to conditions: 6 nmol intraperitoneally; imaged 1-24 hours. As for the experimental part:
Cell lines and Tumor Models. Generation of MDA-MD-231-LMD-PSMA cells. LV-PSMA is a VSV-G pseudotyped lentivirus encoding PSMA which was packaged in 293T cells. LMD-PSMA cells were generated in-house by repetitive lentiviral transduction of a cell line isolated from a lung metastasis derived MDA-MB-231 xenograft in a female NOD-SCID mouse. PSMA expression was evaluated by western blot analysis with 7E11-05 (1:200 dilution). […] Six-to-eight week old female NOD SCID mice were injected subcutaneously with 5×10^6 MDA-MB-231-LMD (a lung metastasis-derived subline of parental MDA-MB-231 behind the right forearm and 5×10^6 MDA-MB-231-LMD-PSMA (the same cell line with Prostate Specific Membrane Antigen (PSMA) stably knocked in via lentiviral vector) injected behind the […] xenografts were allowed to grow until the PSMA xenograft was at least 3 mm in diameter while the −LMD xenograft had reached 6-8 mm in diameter.
Serial in vivo NIRF imaging in TSPO+MDA-MB-231 LMD±PSMA and PC-3 PIP and -flu tumor xenograft bearing mice. MDA-MB-231 LMD lines: one mouse was imaged serially at 1 hour post-tracers, 4 hours, 8 hours and 24 hours post-tracers using a Pearl Impulse Imager (LI-COR Biosciences) with dedicated 710 and 800 nm emission filters. All images were scaled to the same maximum using the manufacturer's software to facilitate direct comparison of all timepoints. […]

The subject of series [2] is CD68+ macrophages in MDA-MB-231 xenografts. Nature of the series: Ex vivo fluorescence microscopy of MDA-MB-231 xenografts. The series is classed as in vivo, mice. As to conditions: 24 hours post-injection. As for the experimental part:
FIG. 6 is a series of photomicrographs of ex vivo fluorescence microscopy of DPA-713-IRDye680LT in MDA-MB-231 xenografts at 24 hours post-injection.
Ex vivo DPA-713-IRDye680LT microscopy. The mice used in the in vivo NIRF studies (PC-3 analog xenografts and MDA-MB-231 analog xenografts) were sacrificed at the end of their studies and their tumors were collected and frozen on dry ice for cryosectioning to 20 microns on charged glass slides (VWR). The sections were then probed with both anti-TSPO Ab (Novus Biologicals NBP1-45769, 1:70) labeled directly with Lissamine sulfonyl chloride (Aldrich) according to the known method and anti-CD68 Ab (Abcam ab53444, 1:40) and lastly with Hoechst 33342 (Invitrogen, 1 ng/mL). Both antibodies were added simultaneously in a 10% FBS in PBS solution applied directly to the freshly thawed sections and allowed to sit at room temperature for 1 hour. The sections were washed twice at room temperature for 5 minutes each with PBS prior to the addition of sheep-anti-rat-FITC (Abcam ab6848-1, 1:250) in PBS at room temperature for 30 minutes. The secondary antibody solution was removed and the slides were bathed in Hoechst solution (PBS) for 1.5 minutes at room temperature before being washed twice as before with PBS. […] All images are recorded and processed using Nikon Imaging Software Elements. […]

`CCN(CC)C(=O)Cc1c(-c2ccc(OCCNC(=O)CCCCc3cccc(C(=C\C=C4/N(CCCS(=O)(=O)O)c5ccc6c(S(=O)(=O)O)cc(S(=O)(=O)O)cc6c5C4(C)C)/C=C/C4=[N+](CCCS(=O)(=O)[O-])c5ccc6c(S(=O)(=O)O)cc(S(=O)(=O)O)cc6c5C4(C)C)c3)cc2)nn2c(C)cc(C)nc12` [DPA-713-IRDye680LT, 3-(2-((1E,3Z,5Z)-3-(3-(5-(2-(4-(3-(2-(diethylamino)-2-oxoethyl)-5,7-dimethylpyrazolo[1,5-a]pyrimidin-2-yl)phenoxy)ethylamino)-5-oxopentyl)phenyl)-5-(1,1-dimethyl-6,8-disulfo-3-(3-sulfopropyl)-1Hbenzo[e]indol-2(3H)-ylidene)penta-1,3-dienyl)-1,1-dimethyl-6,8-disulfo-1H-benzo[e]indolium-3-yl)propane-1-sulfonate]: in series [1], the “Probe uptake in the larger (8 mm) PSMA+ xenograft” value is “visible 1 hour following peritoneal injection and continues through 24 hours after injection”; the “Probe uptake in the smaller (3 mm) parental xenograft” value is “no observable uptake until the fur and skin are removed at 24 hours post-injection”. Further, in series [2], the “Cell-specific localization of probe in xenograft sections” value was “selectively retained by CD68-expressing macrophages; also recorded: sequestered within CD68+ macrophages”.
